{"source": "patent US10004730B2", "about": "“Small molecules targeting androgen receptor nuclear localization and/or level in prostate cancer” (University of Pittsburgh-Of the Commonwealth System of …, priority 2011, dated 2018)", "key": {"AR": {"tested_on": "AR", "experiment": "Western blot of AR protein in prostate cancer cells", "type": "cell-based", "details": "for endogenous AR level (degradation): 48 hrs", "method": "FIGS. 10A and 10B. Down-regulation of the expression of AR and its downstream target PSA by SID 3712502 in C4-2 (FIG. 10A) and LNCaP (FIG. 10B) cells. Cells in RPMI 1640 complete medium were treated with SID 3712502 or vehicle DMSO at the indicated concentrations for 48 hrs. The cells were then harvested in RIPA buffer for Western blot analysis using antibodies for AR, PSA, and GAPDH. GAPDH was included as a loading control.\nFIGS. 13A-C. Effect of SID 3712502 on the expression of AR and PSA in 22Rv1 (FIG. 13A) cells. […] The cells in RPMI 1640 complete medium were treated with SID 3712502 or vehicle DMSO at the indicated concentrations (uM) for 48 h. The cells were then harvested in RIPA buffer for Western blot analysis using antibodies for AR, PSA, and GAPDH. GAPDH was included as a loading control. FIG. 13B. SID 3712502 inhibits AR transactivation of PSA-luciferase reporter. C4-2 cells were transfected with PSA6.1-Luc, GFP-AR, and pRL-CMV and then treated with indicated doses of SID 3712502 for 24 hours. FIG. 13C. SID 3712502 inhibits transactivation of PSA-luciferase reporter by AR(1-665), which lacks LBD. PC3 cells were transfected with GFP-NAR and PSA6.1 Luc overnight prior to treatment with 10 μM SID 3712502 (SID) or DMSO (C) for 24 hours. For luciferase assays, cells were lysed with passive lysis buffer (Promega) and both Firefly and Renilla luciferase activities were read using a Dual-Luciferase Reporter Assay kit (Promega) on a LmaxII384 luminometer (Molecular Devices). Firefly luciferase values were normalized to Renilla (pRL-CMV) or protein of cell lysates. Plotted values represent averaged normalized Firefly luciferase activities, each performed in triplicate, relative to DMSO control. One-way ANOVA was performed with a Bonferroni's Multiple Comparison posttest *** p<0.0001 (C). Student's t-test was performed; ***p=0.0002 (D)."}, "PC3 cells": {"tested_on": "PC3 cells", "experiment": "BrdU incorporation, PC3", "type": "cell-based", "details": "PC3, up to 50 uM, 48 hrs", "method": "(§1) FIGS. 14A-F. Effect of SID 3712502 at indicated concentrations on BrdU incorporation in cultured AR-positive LNCaP (FIG. 14A), C4-2 (FIG. 14B), 22Rv1 (FIG. 14C), LAPC4 (FIG. 14D) cells, and AR-negative DU145 (FIG. 14E) and PC3 (FIG. 14F) cells. Cells were plated in 12-well plates at 2,500 cell per well in RPMI 1640 complete medium. After 24 hrs, the cells were treated with SID 3712502 at the indicated concentrations for 48 hrs and BrdU incorporation was assayed according to manufacturer's instructions (Invitrogen BrdU staining kit; catalog #: 93-3943). The percentage of BrdU-positive cells was determined and then normalized to generate relative BrdU index. Ctrl=DMSO control."}, "[1]": {"experiment": "Pilot toxicity experiment in mice", "type": "in vivo", "details": "all doses tested, highest 100 mg/kg; data not shown", "method": "[…]. […] A pilot experiment was also performed testing the toxicity of SID 3712502 in mice."}, "[2]": {"tested_on": "castration resistant 22Rv1 xenograft tumors", "experiment": "22Rv1 xenograft tumors in castrated SCID mice", "type": "in vivo", "details": "i.p. 25 mg/kg every other day", "method": "FIGS. 15A-B. SID 3712502 inhibited the growth of castration resistant 22Rv1 xenograft tumors (FIG. 15A), but not PC3 tumors (FIG. 15B). 22Rv1 or PC3 tumors were established by s.c. injection of 1×10^6 cells into young adult male SCID mice. SCID mice were castrated and randomized when tumor volume reached ˜400 uL. Mice received i.p. delivery of SID 3712502 (25 mg/kg body weight) or vehicle control EPL every other day, beginning 4 days after castration (injection indicated by arrows). Each group consisted of 10 mice for 22Rv1, and 8 mice for PC3 tumors. Tumor volumes were measured using micro-calipers and calculated using the formula (length×width^2)/2. Black and red lines represent data from the animals treated with vehicle (C) and SID 3712502 (SID), respectively. P value was calculated using a two-way ANOVA with the Bonferrroni correction (GraphPad). Error bars=SEM. **p<0.01."}, "DU145 cells": {"tested_on": "DU145 cells", "experiment": "BrdU incorporation, DU145", "type": "cell-based", "details": "DU145, up to 50 uM, 48 hrs", "method": "as §1"}, "LNCaP cells": {"tested_on": "LNCaP cells", "experiment": "BrdU incorporation, LNCaP", "type": "cell-based", "details": "48 hrs", "method": "as §1"}, "C4-2 cells": {"tested_on": "C4-2 cells", "experiment": "BrdU incorporation, C4-2", "type": "cell-based", "details": "C4-2, 48 hrs", "method": "as §1"}}, "data": [{"smiles": "Cc1cccc(N2CCN(C(=O)CSCc3c(C)noc3C)CC2)c1C", "note": "[SID 3712502, 2-[(3,5-dimethyl-1,2-oxazol-4-yl)methylsulfanyl]-1-[4-(2,3-dimethylphenyl)piperazin-1-yl]ethanone]", "values": [{"measurement": "AR protein levels", "setting": "AR; 10-50 uM, 48 h, C4-2 and 22Rv1 cells", "value": "inhibited AR protein levels"}, {"measurement": "endogenous AR level (degradation)", "setting": "AR; C4-2 cells", "value": "can cause degradation of endogenous AR"}, {"measurement": "endogenous AR level (degradation)", "setting": "AR; LNCaP cells", "value": "can cause degradation of endogenous AR"}, {"measurement": "proliferation (BrdU incorporation)", "setting": "PC3 cells", "value": "no detectable effect"}, {"measurement": "toxicity in mice", "setting": "[1]", "value": "no identifiable effect"}, {"measurement": "growth of 22Rv1 xenograft tumor", "setting": "[2]", "value": "significantly inhibited the growth"}, {"measurement": "proliferation (BrdU incorporation)", "setting": "DU145 cells", "value": "no detectable effect"}, {"measurement": "proliferation (BrdU incorporation)", "setting": "LNCaP cells", "value": "inhibited the proliferation"}, {"measurement": "proliferation (BrdU incorporation)", "setting": "C4-2 cells", "value": "inhibited the proliferation"}]}]}
